How the values were obtained:
[1] = tested on: Firefly phosphodiesterase enzyme; assay: PDE inhibitory activity, firefly lantern; type: biochemical, firefly (Photinus pyralis)
Excerpt: (§1) The ability of any compound (A) to inhibit phosphodiesterase (PDE) activity in broken cell preparations of firefly lantern or in pest tissues can be determined either (1) by measuring the decrease in rate of hydrolysis of an added amount of cyclic AMP by PDE (see Methods Section of Nathanson et al., Mol. Pharmacol. 12:390-398 (1975)), or (2) by measuring the rate of accumulation of one of the breakdown products of cyclic AMP, such as 5'-AMP or adenosine (see method of Filburn et al., Anal. Biochem. 52:505-516 (1973)). Both of these are herein incorporated by reference.
Generally, any compound capable of maximally inhibiting PDE activity by at least 50% (Vmax -inhibition) and preferably by at least 80% is preferred. Also, in terms of the concentration of the compound required for such inhibition, this can be quantitated by determining the IC 50-inhibition, i.e., the concentration of the compound required to cause 50% of the maximal inhibitioncaused by the compound at any concentration.
(§2) In this assay (modified slightly from Filburn and Karn (Analyt. Biochem. 52: 505-516 (1973)), the rate of hydrolysis of labeled cyclic AMP to 5'-AMP by PDE is measured by converting the breakdown product (5'-AMP) to adenosine, which can be separated and measured by alumina chromatography. Specifically, tissue from either the firefly lantern or pest is homogenized (10-20 mg/ml) in 6 mM Tris-maleate buffer, pH 7.4. The hydrolysis reaction is run in test tubes containing (in 100 microliters): 80 mM Tris maleate, pH 7.4; 6 mM MgSO4; 10 pmoles tritiated cyclic AMP (2×10^4 to 2×10^5 cpm, depending upon the activity of the enzyme); 20 microliters of tissue homogenate; and various concentrations of the compound to be tested. In those cases in which the compound is insoluble in aqueous solution at pH 7.4, pH can be varied between pH 6.5 and 9.0 for optimization of solubility. In addition, the test compound can be initially solubilized in either 100% methanol or DMSO and diluted to a final concentration of 10% methanol or DMSO in the assay (in which case solvent controls are run in parallel).
The reaction is started by the addition of homogenate, run for 4 min at 37° C., and terminated by boiling for 90 sec. The 5'AMP formed is then converted to adenosine by the addition of 20 microliters of an aqueous solution of 0.5 Units/ml of 5'-nucleotidase (Sigma, Grade IV), vortexed, and incubated for 30 minutes at 37° C. The second reaction is stopped by addition of 0.4 ml of 0.1N ammonium acetate, pH 4.0. The entire sample is then applied to a 0.5×8 cm column containing neutral alumina prewashed with 20 ml of 0.1N ammonium acetate, pH 4.0. The void volume is discarded and the column is then eluted with 2 ml of 0.1N ammonium acetate, pH 4.0, the eluent collected and counted by liquid scintillation spectrometry. Activity is cpms above that due to a blank which was initially incubated for 0 seconds in the first reaction.

[2] = tested on: phosphodiesterase enzyme of hornworm nerve cord; assay: PDE inhibitory activity, hornworm nerve tissue; type: biochemical, tobacco hornworm (Manducca sexta); conditions: FIG. 8
Excerpt: as §1, §2
The reaction is started by the addition of homogenate, run for 4 min at 37° C., and terminated by boiling for 90 sec. […] The void volume is discarded and the column is then eluted with 2 ml of 0.1N ammonium acetate, pH 4.0, the eluent collected and counted by liquid scintillation spectrometry. […]

[3] = Level of PDE inhibitor compound in insects in vivo; design: species or system tobacco hornworms; conditions: feeding 72 hours on tomato leaves treated with a 1% spray of theophylline; read-out: internal concentration within the insects
Protocol: To determine this, tobacco hornworms were allowed to feed on tomato leaves treated with a 1% spray of theophylline. This concentration was chosen since it is an amount which, by itself, inhibits feeding in the tobacco hornworm (see FIG. 13). After 72 hours, worms (alive or dead) were removed, quickly rinsed of any compound adhering to their outside cuticle, and then homogenized. The homogenate was centrifuged at 2000×g for 5 minutes and the supernatant was assayed for theophylline concentration by a standard immunoenzymatic procedure (Emit-aad® Theophylline Assay, Syva Company, Palo Alto, Calif.). By this procedure, the internal concentration within the insects was determined to be 4.0 mM. From FIGS. 6,7 or 8 it will be seen that this concentration of theophylline is sufficient to cause at least 70% inhibition of PDE enzyme activity in vitro. The correspondence between in vitro and in vivo results is remarkably close and serves to further support the invention.

[4] = tested on: tobacco hornworms (Manducca sexta); assay: In vivo leaf test (feeding on sprayed tomato leaves)
[5] = tested on: PDE in tissue homogenate from tobacco hornworm nerve cord; assay: Cyclic AMP analogue remaining after incubation with nerve cord homogenate; type: in vitro ADME, tobacco hornworm (Manducca sexta); conditions: IBMX 0.1 mM; 4 hours in vitro; FIG. 20
Protocol: It has been previously shown, above, that PDE inhibition can increase the concentration of cyclic AMP in insect tissue. […] In order to do this, a fixed amount of butyl-benzylthio cyclic AMP was incubated in vitro for 4 hours in the presence of a tissue homogenate from tobacco hornworm nerve cord. In some tubes, IBMX (0.1 mM) was added to inhibit PDE. After the incubation, the amount of butyl-benzylthio cyclic AMP remaining was measured by protein binding assay (Brown et al., supra), using a standard curve based upon butyl-benzylthio cyclic AMP.

SMILES	phosphodiesterase inhibition ([1]; FIG. 6)	inhibition of PDE enzyme activity in vitro ([1]; theophylline 4.0 mM, read from FIGS. 6,7 or 8 (firefly or hornworm))	pattern of PDE inhibition [2]	concentration [3]	% Leaf Remaining (increase over control) ([4]; 1% Theophylline alone)	amount of butyl-benzylthio cyclic AMP present after 4 hours, effect of addition of IBMX [5]	antifeeding activity in the absence of IBMX ([4]; concentration of 1%, FIGS. 18, 19)
Cn1c(=O)c2[nH]cnc2n(C)c1=O [theophylline]	active as phosphodiesterase inhibitors	at least 70%	quite similar to that in the firefly light organ	4000 µM	11%	–	–
CCCCNc1ncnc2c1nc(SCc1ccccc1)n2[C@@H]1O[C@@H]2COP(=O)(O)O[C@H]2[C@H]1O [n-butylaminobenzylthio cyclic AMP, 6-n-butylamino-8-benzylthio-cyclic AMP]	–	–	–	–	–	more than doubled	some antifeeding activity

Source: US4902690A, “Pest controlling compositions” (The General Hospital Corporation, priority 1988, dated 1990)
